Assay results: ChEMBL document CHEMBL1201862, “PubChem BioAssay data set” (2004)
Active and inactive are the calls of the source.

Tests used:
[1] = target: T1, Exodeoxyribonuclease V (Escherichia coli (strain K12), UniProt P04993+P07648+P08394); assay: E. coli RecBCD inhibitors, dose response, counter-screen for AddAB inhibitor project, absorbance, V66 E. coli, mutant T4 phage (AID 492957); type: functional, cell-based, Escherichia coli str. K-12 substr. MG1655
T1 sequence (P04993 whole entry): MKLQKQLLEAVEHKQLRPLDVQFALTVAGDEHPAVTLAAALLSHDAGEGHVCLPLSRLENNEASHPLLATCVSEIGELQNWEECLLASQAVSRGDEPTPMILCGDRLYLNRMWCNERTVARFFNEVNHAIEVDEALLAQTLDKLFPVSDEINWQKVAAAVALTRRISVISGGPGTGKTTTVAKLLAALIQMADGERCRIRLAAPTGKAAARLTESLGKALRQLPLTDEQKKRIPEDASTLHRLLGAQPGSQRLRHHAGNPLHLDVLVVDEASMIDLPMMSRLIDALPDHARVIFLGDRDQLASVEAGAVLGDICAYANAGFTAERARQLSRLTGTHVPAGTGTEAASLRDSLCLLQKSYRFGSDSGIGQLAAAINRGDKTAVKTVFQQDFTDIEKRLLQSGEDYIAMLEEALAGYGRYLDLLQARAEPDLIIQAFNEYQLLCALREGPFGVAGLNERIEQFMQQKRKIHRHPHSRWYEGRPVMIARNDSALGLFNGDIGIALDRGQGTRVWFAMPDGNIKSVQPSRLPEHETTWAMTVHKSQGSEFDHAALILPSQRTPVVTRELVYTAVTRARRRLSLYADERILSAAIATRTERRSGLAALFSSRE
T1 sequence (P07648 whole entry): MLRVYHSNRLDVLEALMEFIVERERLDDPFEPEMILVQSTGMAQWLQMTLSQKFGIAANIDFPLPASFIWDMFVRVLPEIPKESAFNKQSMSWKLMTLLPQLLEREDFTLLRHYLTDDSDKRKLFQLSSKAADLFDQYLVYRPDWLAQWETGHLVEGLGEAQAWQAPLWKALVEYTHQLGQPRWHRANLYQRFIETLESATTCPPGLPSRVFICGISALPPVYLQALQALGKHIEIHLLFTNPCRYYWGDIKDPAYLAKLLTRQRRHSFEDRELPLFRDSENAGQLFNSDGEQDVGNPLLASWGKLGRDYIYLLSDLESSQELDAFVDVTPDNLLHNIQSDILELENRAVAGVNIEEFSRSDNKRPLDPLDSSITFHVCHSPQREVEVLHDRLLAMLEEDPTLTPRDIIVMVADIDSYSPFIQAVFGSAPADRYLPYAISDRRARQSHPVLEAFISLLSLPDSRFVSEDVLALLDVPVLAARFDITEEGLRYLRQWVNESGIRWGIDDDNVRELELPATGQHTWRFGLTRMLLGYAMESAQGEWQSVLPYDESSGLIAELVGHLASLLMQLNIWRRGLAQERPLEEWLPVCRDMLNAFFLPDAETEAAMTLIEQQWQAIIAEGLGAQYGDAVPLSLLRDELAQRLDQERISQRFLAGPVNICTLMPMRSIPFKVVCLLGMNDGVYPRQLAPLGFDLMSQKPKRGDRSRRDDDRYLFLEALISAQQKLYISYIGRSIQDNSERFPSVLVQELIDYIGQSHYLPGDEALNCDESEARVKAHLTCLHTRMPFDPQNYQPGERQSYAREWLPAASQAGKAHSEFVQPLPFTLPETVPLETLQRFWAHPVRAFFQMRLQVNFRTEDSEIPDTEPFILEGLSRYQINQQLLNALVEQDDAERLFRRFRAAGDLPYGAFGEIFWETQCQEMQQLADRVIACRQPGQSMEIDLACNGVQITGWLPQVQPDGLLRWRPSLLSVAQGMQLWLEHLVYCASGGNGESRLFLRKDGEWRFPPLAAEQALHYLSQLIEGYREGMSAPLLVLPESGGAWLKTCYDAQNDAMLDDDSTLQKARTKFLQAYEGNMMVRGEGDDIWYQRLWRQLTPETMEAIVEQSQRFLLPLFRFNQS
T1 sequence (P08394 whole entry): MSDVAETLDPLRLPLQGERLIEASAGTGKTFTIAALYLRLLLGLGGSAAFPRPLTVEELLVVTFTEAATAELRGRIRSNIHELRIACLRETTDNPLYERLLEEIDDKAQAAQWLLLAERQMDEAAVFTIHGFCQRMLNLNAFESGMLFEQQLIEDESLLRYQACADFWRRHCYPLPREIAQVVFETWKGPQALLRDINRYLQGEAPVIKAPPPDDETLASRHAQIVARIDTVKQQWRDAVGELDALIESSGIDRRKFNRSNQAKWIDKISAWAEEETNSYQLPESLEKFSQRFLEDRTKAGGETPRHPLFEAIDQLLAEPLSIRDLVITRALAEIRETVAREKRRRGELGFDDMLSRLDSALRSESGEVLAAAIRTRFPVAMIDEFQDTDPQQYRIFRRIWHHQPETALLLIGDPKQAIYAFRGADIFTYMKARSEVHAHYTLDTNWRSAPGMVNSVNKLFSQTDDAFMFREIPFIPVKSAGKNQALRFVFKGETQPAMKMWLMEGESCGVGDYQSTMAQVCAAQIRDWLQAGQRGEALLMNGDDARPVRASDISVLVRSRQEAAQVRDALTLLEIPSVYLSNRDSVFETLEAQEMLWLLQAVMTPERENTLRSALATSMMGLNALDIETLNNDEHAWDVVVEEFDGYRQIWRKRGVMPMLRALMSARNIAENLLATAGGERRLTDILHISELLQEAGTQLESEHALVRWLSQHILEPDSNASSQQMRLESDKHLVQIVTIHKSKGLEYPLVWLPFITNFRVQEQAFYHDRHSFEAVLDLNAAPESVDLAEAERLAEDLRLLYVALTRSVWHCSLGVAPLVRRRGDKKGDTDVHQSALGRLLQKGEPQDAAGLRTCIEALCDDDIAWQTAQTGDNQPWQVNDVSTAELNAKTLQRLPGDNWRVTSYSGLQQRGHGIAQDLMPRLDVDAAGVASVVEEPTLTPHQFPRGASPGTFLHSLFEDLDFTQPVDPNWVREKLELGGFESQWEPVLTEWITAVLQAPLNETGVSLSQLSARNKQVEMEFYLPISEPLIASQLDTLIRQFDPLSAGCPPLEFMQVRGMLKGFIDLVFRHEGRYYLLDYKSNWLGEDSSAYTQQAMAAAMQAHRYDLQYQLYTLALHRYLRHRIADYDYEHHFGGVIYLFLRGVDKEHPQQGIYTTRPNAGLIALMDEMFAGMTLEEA

[2] = Counterscreen for AddAB inhibitors: absorbance-based bacterial cell-based high throughput dose response assay for inhibitors of bacterial viability. [Related pubchem assays (depositor defined):AID435030, AID449728, AID449731, AID488942, AID488955, AID488956]; type: functional
[3] = target: T2, Endoribonuclease toxin MazF (Escherichia coli K-12, UniProt P0AE70); assay: fluorescent RNA oligo signal without MazF, dose response, counter-screen for MazEF activator project, biochemical, fluorescence, single-stranded RNase substrate (AID 588502); type: functional
T2 sequence (P0AE70 whole entry): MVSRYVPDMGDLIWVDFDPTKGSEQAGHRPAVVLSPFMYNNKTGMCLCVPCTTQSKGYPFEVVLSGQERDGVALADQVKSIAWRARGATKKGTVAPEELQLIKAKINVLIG

[4] = target: T2, Endoribonuclease toxin MazF; assay: MazF toxin RNase activators, dose response, biochemical, fluorescence, single-stranded RNA substrate, uHTS hits (AID 588481); type: functional
[5] = system: BJ; assay: cytotoxicity toward BJ-TERT fibroblasts, dose response, cell-based, RAS-independent, luminescence (AID 1933); type: functional; details: Homo sapiens
[6] = system: BJ; assay: cells; type: functional, cell-based; details: Homo sapiens
[7] = Luminescence Cell-Based Dose Retest to Confirm Inhibitors of Cancer Stem Cells. [Related pubchem assays (depositor defined):AID2717, AID2721]; type: functional; details: Homo sapiens
[8] = cytotoxicity in HMLE control line with eGFP shRNA, dose response, counter-screen for HMLE_sh_ECad selective toxicity project, cell-based, HMLE_sh_eGFP, luminescence (AID 463074); type: functional, Homo sapiens;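 further: HMLE human mammary epithelial cells expressing control shRNA against eGFP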
[9] = cytotoxicity toward DRD oncogenic fibroblasts, dose response, cell-based, non-viral oncogenic, luminescence (AID 1934); type: functional; details: Homo sapiens
[10] = system: BJ; assay: cytotoxicity toward BJ-TERT-LT-ST fibroblasts, dose response, cell-based, RAS-independent, luminescence (AID 1935); type: functional; details: Homo sapiens;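 further: BJ fibroblasts immortalized with TERT plus LT and ST oncogenes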
[11] = target: T3, Streptokinase A (Streptococcus pyogenes serotype M1, UniProt P10520); assay: S. pyogenes streptokinase expression inhibitors, potency, dose response, plasminogen activation absorbance, OD405 (AID 1914); type: functional, Streptococcus pyogenes M1 GAS;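 further: secreted streptokinase activity via plasminogen activation per viability signal from cell pellet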
T3 sequence (P10520 whole entry): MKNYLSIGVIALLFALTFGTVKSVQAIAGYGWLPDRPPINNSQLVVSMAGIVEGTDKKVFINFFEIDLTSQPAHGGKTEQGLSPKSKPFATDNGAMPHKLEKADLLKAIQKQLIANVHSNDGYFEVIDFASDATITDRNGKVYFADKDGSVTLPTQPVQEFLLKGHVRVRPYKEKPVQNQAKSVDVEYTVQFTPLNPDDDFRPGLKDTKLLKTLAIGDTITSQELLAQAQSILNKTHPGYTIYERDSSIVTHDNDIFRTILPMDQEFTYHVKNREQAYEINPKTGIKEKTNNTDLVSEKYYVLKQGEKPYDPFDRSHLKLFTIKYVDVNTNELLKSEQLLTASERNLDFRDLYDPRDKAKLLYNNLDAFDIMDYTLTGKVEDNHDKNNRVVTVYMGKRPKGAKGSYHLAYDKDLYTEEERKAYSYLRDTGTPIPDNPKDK

[12] = HeLa cell cytotoxicity, dose response, cytotoxicity control for MgcRacGAP inhibitor project (AID 624300); type: functional
[13] = system: Streptococcus sp. 'group A'; assay: growth inhibition of control SK(-) GAS strain, dose response, counter-screen for streptokinase expression inhibitor project, luminescence, kanamycin, BacTiterGlo, confirmation (AID 1900); type: functional, organism-based
[14] = system: Streptococcus; assay: Group A Streptococcus viability loss, dose response, counter-screen for streptokinase expression inhibitor project, luminescence, BacTiterGlo (AID 1915); type: functional, organism-based;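 further: potency for reduction of bacterial viability or growth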
[15] = system: INS1; assay: beta cell apoptosis inhibitors, cytokine rescue, dose response, luminescence, retest (AID 449756); type: functional, cell-based; details: Rattus norvegicus;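 further: cell death triggered by IL-1 beta plus TNF-alpha plus IFN-gamma mixture; protective hits raise ATP signal compared with cytokine alone wells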

## Cc1cc(N/N=C/c2ccc([N+](=O)[O-])o2)nc2ccccc12
[1]
  IC50: > 118 µM (inactive)
[2]
  IC50: > 118 µM (inactive)

## O=[N+]([O-])c1ccc2[nH]c(O)c(N=Nc3ccc(F)cc3)c2c1
[3]
  EC50: 20.3 µM (inactive)
[4]
  EC50: > 99 µM (inactive)

## Cc1cccc(NC(=S)N/N=C/c2cccc(O)c2)c1C
[5]
  EC50: 11.3 µM (active)
[6]
  EC50: 26 µM (inconclusive)
[7]
  AC50: 1.15 µM (active)
[8]
  AC50: 33.7 µM (active)
[9]
  EC50: 2.75 µM (active)
[10]
  EC50: 2.91 µM (active)

## O=C(NC(NC(=S)Nc1ccc(Cl)c(Cl)c1)C(Cl)(Cl)Cl)c1ccco1 (stereo unspecified)
[1]
  IC50: > 119 µM (inactive)
[2]
  IC50: > 119 µM (inactive)
[11]
  EC50: 10.9 µM (active)
[12]
  CC50: 57.7 µM (active)
[13]
  EC50: 4.32 µM (active)
[14]
  EC50: 10.9 µM (active)

## Cc1ccc(N/N=C(\Cc2nc3ccccc3[nH]2)c2ccccc2)cc1
[7]
  AC50: 0.47 µM (active)
[8]
  AC50: 0.385 µM (inconclusive)

## C=CCc1cccc(/C=N/NC(=O)CCC(=O)Nc2ccc(F)cc2)c1O
[1]
  IC50: > 119 µM (inactive)
[2]
  IC50: > 119 µM (inactive)
[15]
  AC50: 3.18 µM (active)
